The test system of assay [1] is kidneys isolated from rats. As to the kind of experiment: Renal function of grafted rat kidneys preserved 6 hours in a gaseous atmosphere (creatinine clearance, 24-hour albuminuria). It is filed as in vivo, Wistar rats. The following applies: days D7 and D14 after graft, kidney preserved 6 hours in 100% by volume gas; for creatinine clearance of the grafted kidneys: estimated, related back to 100 g of weight, FIG. 1. The text has this: (§1) To do this, kidneys isolated from rats intended for a transplantation were used.
(§2) 120 Wistar rats, weighing between 200 g and 250 g, were used while adhering to the Guide for the Care and Use of Laboratory Animals published by the National Institutes of Health.
(§3) The animals were operated upon under general anesthesia and the left kidneys were removed and then preserved in several gaseous atmospheres, namely: • Group A (according to the invention): argon (100% by volume) • Group B (comparative): xenon (100% by volume) • Group C (1st control): air (i.e. essentially N2/O2 mixture) • Group D (2nd control): nitrogen
(§4) The kidneys of a rat are preserved therein for 6 hours before being grafted onto another anesthetized rat according to the conditions previously described. The rats are kept under observation for 14 days.
(§5) In order to carry out an evaluation of the effectiveness of the protection produced by the various gases tested, the renal function and renal morphology of the grafted kidneys were examined.
The renal function was evaluated by calculating the creatinine clearance estimated and related back to 100 g of weight, and by measuring the 24-hour albuminuria.

The test system of assay [2] is kidneys isolated from rats. As to the kind of experiment: Renal morphology of grafted rat kidneys preserved 6 hours in a gaseous atmosphere (standard histology, histochemistry with anti-active caspase-3 and anti-CD10 antibodies). It is filed as in vivo, Wistar rats. To be noted: grafted kidneys preserved 6 hours in 100% by volume gas; for kidneys showing cell lysis with subconfluent coagulation necrosis (standard histology): share of kidneys of the group.
From the text: as §1, §2, §3, §4, §5
The renal morphology was evaluated by standard histology and histochemistry using anti-active caspase-3 and anti-CD10 antibodies.

For the molecule `[Ar]` [argon], the albuminuria result in assay [1] (24-hour albuminuria, FIG. 2) was “half as much in group A than in the other groups”. In addition, the “creatinine clearance of the grafted kidneys” value in assay [1] is on record as “preserved a good creatinine clearance”. Further, the “CD10 labeling (histochemistry; preservation of the tubule functional structure)” value in assay [2] (anti-CD10 antibody) is “very well preserved”. The “caspase-3 labeling (histochemistry; cell degeneration)” value in assay [2] (anti-active caspase-3 antibody) was “discrete and in foci”. In assay [2], the “kidneys showing cell lysis with subconfluent coagulation necrosis (standard histology)” value was “no kidney of group A under an argon atmosphere exhibited any sign of cell lysis or necrosis”.
For `[Xe]` [xenon, reference compound], the “creatinine clearance of the grafted kidneys” value in assay [1] is listed as “slightly better with xenon, but significantly lower compared with argon”. In addition, the “kidneys showing cell lysis with subconfluent coagulation necrosis (standard histology)” value in assay [2] is recorded as “⅓”.

The values above are taken from US20130039993A1, “ARGON-BASED INHALABLE GASEOUS MEDICAMENT AGAINST PERIPHERAL ORGAN DEFICIENCIES OR FAILURES” (L'Air Liquide, Societe Anonyme pour l'Etude et …, priority 2010, published 2013).
